Where two headings read alike, the source gives them in different places.
Columns and labels:
hLigI = biological target: T1, hLigI (Homo sapiens, UniProt P18858); assay: High-throughput fluorescence-based DNA joining (ligation) assay; assay type: biochemical
T1 construct: made in house
Procedure: (§1) Candidate ligase inhibitors identified by CADD were assayed for their ability to inhibit hLigI and T4 DNA ligase using a high-throughput, fluorescence energy transfer-based DNA joining assay (22). Duplicate reactions (30 μL) containing 10 pmol of nicked DNA substrate and either 0.25 pmol of hLigI or 10 units of T4 DNA ligase were incubated in the presence or absence of 100 μmol/L of the putative inhibitor. DNA binding by the candidate DNA ligase inhibitors was measured by displacement of ethidium bromide from DNA as previously described (30).
(§2) The method for screening compounds comprises testing the compound for the ability to inhibit human DNA ligases I, III and IV with a high throughput fluorescence-based ligation assay. In this assay, phosphodiester bond formation covalently links together two oligonucleotides, one of which is a fluorescent donor AF488 that is 11 nucleotides from the 3′ terminus and the other contains a fluorescence acceptor and quencher, BHQ1 that is 15 nucleotides from the 5′ terminus. When these oligonucleotides are present in separate duplexes and in the same nicked or intact duplex, there is no significant quenching of fluorescence because the donor and acceptor are too far apart. As single-strands neither the AF488 oligonucleotide nor the BHQ1 oligonucleotides have significant secondary structure. However, when these oligonucleotides are ligated together, the resultant single strand forms a stable hairpin structure, in which the AF488 and BHQ1 groups are very close together, resulting in efficient intra-molecular quenching of fluorescence. Thus, in the DNA joining assay, the DNA substrate is denatured after incubation with the DNA ligase and then renatured in the presence of a 20-fold excess of an oligonucleotide that is identical to the ligated strand containing the fluorescent door and acceptor except that it lacks these modifications. Using this assay, DNA joining, which results in reduced fluorescence at 518 nm, can be measured rapidly, quantitatively and with high-throughput using a fluorescence plate reader.
(§3) Applicants developed a novel high throughput fluorescence-based ligation assay by modifying the sequence of the oligos to optimize hairpin formation by the single strand ligated product of the high throughput fluorescence-based ligation assay of Chen et al (22). […] Compound stock solutions, which were 10 mM in 0.5% DMSO, were diluted in 0.5% DMSO. Human DNA ligases I and III were assayed with a nicked DNA substrate whereas as the substrate for human DNA ligase IV was two oligonucleotide duplexes with short complementary single strand ends.

human DNA ligase III = biological target: T2, human DNA ligase III (Homo sapiens, UniProt P49916); assay: as above; assay type: biochemical
T2 sequence (P49916 1-862 isoform P49916-4): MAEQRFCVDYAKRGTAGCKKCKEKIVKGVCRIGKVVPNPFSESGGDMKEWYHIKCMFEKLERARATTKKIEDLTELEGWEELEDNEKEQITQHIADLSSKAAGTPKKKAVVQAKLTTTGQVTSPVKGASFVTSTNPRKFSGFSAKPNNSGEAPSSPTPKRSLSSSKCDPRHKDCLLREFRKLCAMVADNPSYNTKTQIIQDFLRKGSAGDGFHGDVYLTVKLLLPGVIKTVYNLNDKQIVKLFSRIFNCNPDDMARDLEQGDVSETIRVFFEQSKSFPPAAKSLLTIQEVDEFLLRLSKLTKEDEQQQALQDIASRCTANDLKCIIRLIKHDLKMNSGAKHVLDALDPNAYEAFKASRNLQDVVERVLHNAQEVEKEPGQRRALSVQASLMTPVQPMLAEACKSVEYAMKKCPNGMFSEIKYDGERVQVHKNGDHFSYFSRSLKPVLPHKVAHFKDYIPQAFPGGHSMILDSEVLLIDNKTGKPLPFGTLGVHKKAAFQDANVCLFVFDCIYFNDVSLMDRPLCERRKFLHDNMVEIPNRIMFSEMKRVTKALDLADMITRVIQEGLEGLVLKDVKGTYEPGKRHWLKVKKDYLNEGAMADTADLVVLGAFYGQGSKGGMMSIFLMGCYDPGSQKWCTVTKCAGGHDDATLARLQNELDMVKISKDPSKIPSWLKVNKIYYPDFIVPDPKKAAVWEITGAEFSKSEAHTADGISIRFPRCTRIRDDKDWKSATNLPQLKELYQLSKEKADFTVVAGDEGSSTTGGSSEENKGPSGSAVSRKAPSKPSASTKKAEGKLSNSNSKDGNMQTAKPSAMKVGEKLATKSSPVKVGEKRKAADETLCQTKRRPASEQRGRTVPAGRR
Excerpt: as §2, §3

human DNA ligase IV = human DNA ligase IV (Homo sapiens, UniProt P49917); assay: as above; assay type: biochemical
Excerpt: as §2, §3

T4 DNA ligase = biological target: T3, T4 DNA ligase (Enterobacteria phage T4, UniProt P00970); assay: High-throughput fluorescence-based DNA joining assay, non-specific inhibitor control; assay type: biochemical, bacteriophage T4; settings: 100 μM; read-out: In vitro % inhib T4 100
T3 construct: purchased NEB
T3 sequence (P00970 1-487): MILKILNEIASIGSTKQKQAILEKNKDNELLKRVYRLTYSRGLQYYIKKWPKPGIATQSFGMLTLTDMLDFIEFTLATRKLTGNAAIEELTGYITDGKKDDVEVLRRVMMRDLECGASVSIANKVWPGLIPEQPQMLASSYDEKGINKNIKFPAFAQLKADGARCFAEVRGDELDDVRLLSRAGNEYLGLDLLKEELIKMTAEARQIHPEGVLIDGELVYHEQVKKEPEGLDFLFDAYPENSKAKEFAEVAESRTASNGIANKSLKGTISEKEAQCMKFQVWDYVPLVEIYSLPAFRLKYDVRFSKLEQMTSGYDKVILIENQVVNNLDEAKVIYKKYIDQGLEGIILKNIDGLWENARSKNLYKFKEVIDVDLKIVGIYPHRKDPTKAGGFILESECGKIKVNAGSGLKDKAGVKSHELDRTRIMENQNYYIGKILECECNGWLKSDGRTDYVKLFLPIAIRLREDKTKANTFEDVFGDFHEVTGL
Procedure: as §1
In addition, to identify compounds that may be non-specific inhibitors of DNA joining, the 192 compounds were also assayed for their ability to inhibit bacteriophage T4 DNA ligase, an enzyme that utilizes the same reaction mechanism as hLigI, has similar adenylation and OB-fold domains but lacks a DBD domain. (6) Although this is also an ATP-dependent DNA ligase, it lacks the domain containing the binding pocket targeted by the in silico screen. Compounds that inhibited T4 DNA ligase were eliminated as non-specific inhibitors that most likely bind to the DNA.

[1] = system: MCF7, HCT116, HeLa, and MCF10A cells; assay: Survival assay on cell panel (FIG. 9); assay type: cell-based, human; settings: Homo sapiens; cell line not stated
Excerpt: FIG. 9. […] A, effect of L67 (left) and L189 (right) on the survival of MCF7 (Δ), HCT116 (□), HeLa (⋄), and MCF10A (upsidedown triangle) cells. B, normal breast epithelial MCF10A cells (open symbols) and breast cancer MCF7 cells (filled symbols) in the absence (circles) or presence of 3 μmol/L of L67 (squares) were exposed to increasing concentrations of MMS (left). Normal breast epithelial MCF10A cells (open symbols) and colon cancer HCT116 cells (filled symbols) in the absence (circles) or presence of 20 μmol/L of L189 (squares) were exposed to increasing doses of ionizing radiation (right). C, hLigI (I), hLigIIIα (III), and hLigIV (IV) were detected in extracts (400 μg) of the indicated cell lines by immunoblotting. To control for extract loading β-actin was also detected by immunoblotting.
For survival assays, cells were plated in 6 well plates and grown either in the absence or presence of ligase inhibitors. Where indicated, either MMS (0-50 μM) was added to the medium or the cells were irradiated in a Cs-137 irradiator (0-2.5 Gy). After two weeks, colonies were stained with crystal violet (Sigma) and then counted.

HCT116 cells [2] = assay: Screen for potentiation of DNA damaging agents (MMS, camptothecin, cis-platinum, 3 aminobenzamide, ionizing radiation); assay type: cell-based, human; settings: ionizing radiation
Excerpt: (§4) The 192 human DNA ligase inhibitors were screened in parallel for effects on proliferation and the ability to potentiate the effects of several DNA damaging agents using two cell human lines, a colon cancer line HCT116 and a normal breast epithelial cell line MCF10A using a Biomek FX Laboratory Automation Workstation as described (23). The DNA damaging agents used, methyl methanesulfonate (MMS), camptothecin, cis-platinum, 3 aminobenzamide and ionizing radiation, are representatives of classes of agents used to treat cancer. Briefly, HCT116 and MCF10A cells were plated in 96 well plates such that the cultures were about 80% confluent after 5 days incubation. Compounds were added to the cultures at either 15 μM or 50 μM 1 day after plating. After incubation for 3 days, cell lysed in a solution containing 1.2% Igepal CA-630 and SYBR green that stains DNA (1:1000, Molecular Probes, Eugene, Oreg.). Subsequently, fluorescence was measured per well. The studies with DNA damaging agents were performed as follows. […] For ionizing radiation, cells were pre-incubated with the compounds at 50 μM for 1 hour prior to exposure to 2 gray of ionizing radiation. Cultures were incubated for 3 days and then treated as above.

MCF10A cells = assay: as above; assay type: cell-based, human; settings: ionizing radiation
Excerpt: The 192 human DNA ligase inhibitors were screened in parallel for effects on proliferation and the ability to potentiate the effects of several DNA damaging agents using two cell human lines, a colon cancer line HCT116 and a normal breast epithelial cell line MCF10A using a Biomek FX Laboratory Automation Workstation as described (23). The DNA damaging agents used, methyl methanesulfonate (MMS), camptothecin, cis-platinum, 3 aminobenzamide and ionizing radiation, are representatives of classes of agents used to treat cancer. Briefly, HCT116 and MCF10A cells were plated in 96 well plates such that the cultures were about 80% confluent after 5 days incubation. Compounds were added to the cultures at either 15 μM or 50 μM 1 day after plating. After incubation for 3 days, cell lysed in a solution containing 1.2% Igepal CA-630 and SYBR green that stains DNA (1:1000, Molecular Probes, Eugene, Oreg.). Subsequently, fluorescence was measured per well. The studies with DNA damaging agents were performed as follows. […] Cultures were incubated for 3 days and then treated as above.

HCT116 and MCF10A cells = assay: Screen for potentiation of DNA damaging agents, cell line not stated with the result; assay type: cell-based, human; settings: 50 μM, 2 gray of ionizing radiation
Excerpt: as §4

HCT116 cells [3] = assay: MTT cell growth assay; assay type: cell-based, human; settings: cell growth, compound alone; read-out: IC50 (μM) HCT116
Procedure: The activity of hits from the initial screen was further validated using the MTT assay. Briefly, MCF10A and HCT116 cells were seeded in 96 well plates at 300 and 1200 cells per well, respectively, and allowed to adhere overnight. The following day, serial dilutions of compounds in media were added to the cells in a final volume 200 μl. After incubation for 5 days, MTT reagent (3-(4,5-dimthylthiazol-2-yl)-2,5-diphenyltatrazolium) was added and incubation was continued for 4 h. Formazan crystals generated by reduction of the MTT reagent in mitochondria were solubilized with isopropanol prior to the measurement of absorbance at 560 nm wavelength in a plate reader.
After incubation for 5 days, cell growth was measured by the MTT assay (16).

T1 sequence (P18858 whole entry): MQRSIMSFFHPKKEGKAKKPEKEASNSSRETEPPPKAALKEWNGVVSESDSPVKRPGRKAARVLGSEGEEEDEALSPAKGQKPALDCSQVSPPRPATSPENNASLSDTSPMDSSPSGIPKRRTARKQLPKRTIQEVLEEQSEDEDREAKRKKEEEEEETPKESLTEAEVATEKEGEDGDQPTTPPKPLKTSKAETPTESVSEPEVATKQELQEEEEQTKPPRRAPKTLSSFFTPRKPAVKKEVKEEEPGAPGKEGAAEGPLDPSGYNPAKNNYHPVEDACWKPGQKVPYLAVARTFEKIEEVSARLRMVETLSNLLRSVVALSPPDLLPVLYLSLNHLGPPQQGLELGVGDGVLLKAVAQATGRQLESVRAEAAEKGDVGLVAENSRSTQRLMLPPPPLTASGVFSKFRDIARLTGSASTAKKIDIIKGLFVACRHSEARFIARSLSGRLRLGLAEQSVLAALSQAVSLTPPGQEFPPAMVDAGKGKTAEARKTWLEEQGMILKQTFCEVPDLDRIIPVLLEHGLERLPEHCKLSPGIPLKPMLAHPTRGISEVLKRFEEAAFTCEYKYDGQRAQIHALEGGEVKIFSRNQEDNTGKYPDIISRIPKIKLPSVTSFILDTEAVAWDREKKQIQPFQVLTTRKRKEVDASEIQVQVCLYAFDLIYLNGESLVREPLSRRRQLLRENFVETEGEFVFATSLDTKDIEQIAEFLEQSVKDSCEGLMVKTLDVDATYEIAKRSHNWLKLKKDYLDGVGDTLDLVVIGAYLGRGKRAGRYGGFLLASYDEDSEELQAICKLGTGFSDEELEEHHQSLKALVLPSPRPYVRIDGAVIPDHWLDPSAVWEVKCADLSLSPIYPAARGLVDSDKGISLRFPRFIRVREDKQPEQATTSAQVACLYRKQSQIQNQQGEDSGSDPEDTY
human DNA ligase IV, sequence (P49917 whole entry): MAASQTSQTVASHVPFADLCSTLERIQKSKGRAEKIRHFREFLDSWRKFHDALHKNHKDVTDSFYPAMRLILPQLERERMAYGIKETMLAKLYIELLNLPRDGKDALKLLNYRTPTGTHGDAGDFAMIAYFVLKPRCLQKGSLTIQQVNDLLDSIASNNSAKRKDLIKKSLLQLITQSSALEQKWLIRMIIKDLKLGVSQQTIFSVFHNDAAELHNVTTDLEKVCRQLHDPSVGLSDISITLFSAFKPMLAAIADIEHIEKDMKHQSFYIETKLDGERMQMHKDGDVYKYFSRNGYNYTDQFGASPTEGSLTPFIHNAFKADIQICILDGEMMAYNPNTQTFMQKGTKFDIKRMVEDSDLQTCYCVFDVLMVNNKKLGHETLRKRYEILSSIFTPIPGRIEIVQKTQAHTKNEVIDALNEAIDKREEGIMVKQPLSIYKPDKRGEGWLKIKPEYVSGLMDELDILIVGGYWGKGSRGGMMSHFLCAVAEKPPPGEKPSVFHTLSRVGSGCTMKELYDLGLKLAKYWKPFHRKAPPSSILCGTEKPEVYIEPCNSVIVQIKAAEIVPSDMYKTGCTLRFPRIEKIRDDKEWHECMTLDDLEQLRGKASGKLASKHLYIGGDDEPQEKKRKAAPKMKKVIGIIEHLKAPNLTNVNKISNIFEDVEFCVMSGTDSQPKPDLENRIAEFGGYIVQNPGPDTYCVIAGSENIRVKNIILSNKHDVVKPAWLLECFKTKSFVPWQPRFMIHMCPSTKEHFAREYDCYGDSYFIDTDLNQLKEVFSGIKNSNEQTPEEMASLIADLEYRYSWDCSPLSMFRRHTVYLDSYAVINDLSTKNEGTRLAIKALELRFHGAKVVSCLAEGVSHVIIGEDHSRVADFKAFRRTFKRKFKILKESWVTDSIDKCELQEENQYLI
human DNA ligase IV, sequence (Q13426 whole entry partner): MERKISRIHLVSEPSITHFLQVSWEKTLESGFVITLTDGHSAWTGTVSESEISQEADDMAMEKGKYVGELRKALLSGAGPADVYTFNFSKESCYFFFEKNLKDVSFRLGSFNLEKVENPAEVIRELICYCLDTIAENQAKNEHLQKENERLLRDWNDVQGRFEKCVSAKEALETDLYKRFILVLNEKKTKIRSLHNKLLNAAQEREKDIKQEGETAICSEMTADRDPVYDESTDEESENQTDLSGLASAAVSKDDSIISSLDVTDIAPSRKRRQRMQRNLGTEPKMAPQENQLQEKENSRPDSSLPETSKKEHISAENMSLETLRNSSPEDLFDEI

Row | SMILES | % activity Inhibition hLigI 100 uM (hLigI; 100 uM) | inhibition at 100 µM (hLigI; 100 μM, read-out: In vitro % inhib hLigI 100) | inhibition at 100 µM (human DNA ligase III; 100 μM, read-out: In vitro % inhib hLigIII 100) | inhibition at 100 µM (human DNA ligase III; 100 uM, Ø not defined (0 in Table 5A), read-out: % activity Inhibition hLigIII 100 uM) | inhibition of human DNA ligase III, in words (human DNA ligase III; in vitro screen) | inhibition at 100 µM (human DNA ligase IV; 100 μM, read-out: In vitro % inhib hLigIV 100) | % activity Inhibition hLigIV 100 uM (human DNA ligase IV; 100 uM, Ø not defined (0 in Table 5A)) | inhibition at 100 µM (T4 DNA ligase) | EC50 [1] | % of inhibition @ 100 μM (Helen's data) hLigI (hLigI; 100 μM) | % of inhibition @ 100 μM (Helen's data) hLigIII (human DNA ligase III; 100 μM) | % of inhibition @ 100 μM (Helen's data) hLigIV (human DNA ligase IV; 100 μM) | Radiosensitizers: IC50 ratios HCT116 (HCT116 cells [2]) | Radiosensitizers: IC50 ratios MCF10A (MCF10A cells) | radiosensitizer activity (HCT116 and MCF10A cells) | IC50 (HCT116 cells [3])
1 | N#Cc1cn(CCCCCCCc2[nH]c(=O)[nH]c(=O)c2C#N)c(=O)[nH]c1=O [Compound 209] | Ø | 0% | 71 ± 3% | 70.5 ± 2.6% | specific for DNA ligase III | 0% | Ø | 0% | > 100 µM | – | – | – | – | – | – | –
2 | CCc1ccc(NS(=O)(=O)c2ccc(Cl)s2)cc1 [Compound 105] | – | – | – | – | – | – | – | – | – | NI (NI- no inhibition) | NI (NI- no inhibition) | NI (NI- no inhibition) | 1.3 | 1 | act as radiosensitizers | ~50 µM

Source: patent publication US9757375B2, “Compounds that inhibit human DNA ligases and methods of treating cancer” (University of Maryland, Baltimore, priority 2007, dated 2017)
